The values that follow come from patent publication US11203587B2, “Thyroid hormone receptor beta agonist compounds” (Terns, Inc., priority 2018, dated 2021).

Some results are limits rather than exact numbers.

In one assay the target is T1, THR beta-LBD (Homo sapiens, UniProt P10828).
T1 construct: THR alpha-LBD (0.4 nM final concentration) or THR beta-LBD (1.0 nM final concentration) was added; purchased ThermoFisher
T1 sequence (P10828 217-461 limits assumed): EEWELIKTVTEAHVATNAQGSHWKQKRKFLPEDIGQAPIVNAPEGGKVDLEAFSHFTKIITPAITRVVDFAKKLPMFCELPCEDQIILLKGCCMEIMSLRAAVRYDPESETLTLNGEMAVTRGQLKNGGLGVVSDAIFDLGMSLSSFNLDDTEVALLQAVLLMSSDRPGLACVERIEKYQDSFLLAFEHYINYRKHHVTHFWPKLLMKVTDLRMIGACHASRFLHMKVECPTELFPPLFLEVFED
Put plainly: LanthaScreen TR-FRET Thyroid Receptor beta Coactivator Assay. The class given is biochemical. The conditions noted are these: for THRβ-Selectivity: THR beta over THR alpha, derived from T3-selectivity normalized data; for EC50: TR-FRET coactivator assay, 2 hours incubation at room temperature, run in duplicate multiple times, average data, read-out: EC50 THRβ-FRET. Here is the method: LanthaScreen™ TR-FRET Thyroid Receptor alpha Coactivator Assay kit (ThermoFisher) and LanthaScreen™ TR-FRET Thyroid Receptor beta Coactivator Assay kit (ThermoFisher) were used for agonist compound screening. […] Buffer C (ThermoFisher) was added to each well before the 4× mixture of fluorescein-SCR2-2 coactivator (200 nM final concentration), Terbium-labeled anti-GST antibody (2 nM final concentration), and THR alpha-LBD (0.4 nM final concentration) or THR beta-LBD (1.0 nM final concentration) was added.
Background: TR-FRET usually uses a lanthanide donor and a delayed reading to cut background.

For another assay, the target named is T2, THR alpha-LBD (Homo sapiens, UniProt P10827).
T2 construct: THR alpha-LBD (0.4 nM final concentration) or THR beta-LBD (1.0 nM final concentration) was added; purchased ThermoFisher
Briefly: LanthaScreen TR-FRET Thyroid Receptor alpha Coactivator Assay. The class given is biochemical. The following applies: 2 hours incubation at room temperature, run in duplicate multiple times, average data, read-out: EC50 THRα-FRET. The method, then: Example B1: Time-Resolved Fluorescence Resonance Energy Transfer (TR-FRET) Assay for Thyroid Hormone Receptor Agonist Screening
LanthaScreen™ TR-FRET Thyroid Receptor alpha Coactivator Assay kit (ThermoFisher) and LanthaScreen™ TR-FRET Thyroid Receptor beta Coactivator Assay kit (ThermoFisher) were used for agonist compound screening. Compounds in DMSO were diluted using ECHO Liquid Handler (Labcyte Inc.) into 384 plates in 10-point 3-fold series in duplicate (5 micro M final top concentration). Buffer C (ThermoFisher) was added to each well before the 4× mixture of fluorescein-SCR2-2 coactivator (200 nM final concentration), Terbium-labeled anti-GST antibody (2 nM final concentration), and THR alpha-LBD (0.4 nM final concentration) or THR beta-LBD (1.0 nM final concentration) was added. After 2 hours incubation at room temperature in the dark, the TR-FRET signal was measured on an EnVision plate reader (PerkinElmer) with excitation at 340 nm and dual emission readout at 495 and 520 nm with the delay time of 100 micro second and the integration time of 200 micro second. The ratio of emission signal at 520 and at 495 was used to calculate EC50 using GraphPad Prism (GraphPad Software). […] Compounds' THR-beta selectivity values in Table 2 are derived from T3-selectivity normalized data.

T2 sequence (P10827 163-410 isoform P10827-2 limits assumed, other chains not shown): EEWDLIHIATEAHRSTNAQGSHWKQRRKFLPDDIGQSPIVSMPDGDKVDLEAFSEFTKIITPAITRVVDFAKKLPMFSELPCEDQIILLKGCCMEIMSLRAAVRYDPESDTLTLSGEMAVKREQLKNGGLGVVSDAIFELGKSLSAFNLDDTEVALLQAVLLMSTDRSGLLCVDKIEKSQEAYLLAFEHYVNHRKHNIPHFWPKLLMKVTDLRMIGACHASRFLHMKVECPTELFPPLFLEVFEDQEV

The term EC50 denotes the concentration giving half of the maximal effect. `CC[C@@H](C)c1cc(Oc2c(Cl)cc(-c3n[nH]c(=O)[nH]c3=O)cc2Cl)n[nH]c1=O` (single isomer, unassigned) [Compound 33 P1] showed a THRβ-Selectivity on THR beta-LBD (listed as 33 P1) of 11.3. The EC50 at THR beta-LBD worked out at 696 nM; at THR alpha-LBD it was 2430 nM.

Take `CC(O)c1cc(Oc2c(Cl)cc(-c3n[nH]c(=O)[nH]c3=O)cc2Cl)n[nH]c1=O` (stereo not drawn) [Compound 34, 6-(3,5-dichloro-4-((5-(1-hydroxyethyl)-6-oxo-1,6-dihydropyridazin-3-yl)oxy)phenyl)-1,2,4-triazine-3,5(2H,4H)-dione]: on THR beta-LBD, the THRβ-Selectivity came out at 8.6 and the EC50 turned out to be 400 nM. Also, the EC50 at THR alpha-LBD amounted to 1160 nM.

Consider `CC(CO)c1cc(Oc2c(Cl)cc(-c3nn(C)c(=O)[nH]c3=O)cc2Cl)n[nH]c1=O` (stereo not drawn) [Compound 29, 6-(3,5-dichloro-4-((5-(1-hydroxypropan-2-yl)-6-oxo-1,6-dihydropyridazin-3-yl)oxy)phenyl)-2-methyl-1,2,4-triazine-3,5(2H,4H)-dione], for which, on THR beta-LBD, the THRβ-Selectivity came out at 7.105 and the EC50 came out at 2070 nM. The concentration giving a half-maximal response (EC50) on THR alpha-LBD was found to be 4040 nM.

As to `CCC(C)c1cc(Oc2c(Cl)cc(-c3nn(C)c(=O)[nH]c3=O)cc2Cl)n[nH]c1=O` (stereo not drawn) [Compound 32, 6-(4-((5-(sec-butyl)-6-oxo-1,6-dihydropyridazin-3-yl)oxy)-3,5-dichlorophenyl)-2-methyl-1,2,4-triazine-3,5(2H,4H)-dione], on THR beta-LBD, the THRβ-Selectivity came to 20.9 and the concentration giving a half-maximal response (EC50) amounted to 231 nM. Further, the EC50 at THR alpha-LBD was determined as 1130 nM.

On to `CC(C)c1cc(Oc2c(Cl)cc(-c3n[nH]c(=O)[nH]c3=O)cc2Cl)n[nH]c1=O` [Compound 2, 6-(3,5-dichloro-4-((5-isopropyl-6-oxo-1,6-dihydropyridazin-3-yl)oxy)phenyl)-1,2,4-triazine-3,5(2H,4H)-dione], for which the THRβ-Selectivity at THR beta-LBD came out at 27.7. Also, the values for the concentration giving a half-maximal response (EC50) on THR beta-LBD and at THR alpha-LBD were 141 nM and 681 nM, respectively.

In the case of `C[C@@H](O)c1cc(Oc2c(Cl)cc(-c3nn(C)c(=O)[nH]c3=O)cc2Cl)n[nH]c1=O` (single isomer, unassigned) [Compound 31 P2], the THRβ-Selectivity at THR beta-LBD is given as 21.7. The values for the EC50 at THR beta-LBD and at THR alpha-LBD were 452 nM and 3080 nM, respectively.

Regarding `CC(C)c1cc(Oc2c(Cl)cc(-c3nn(C)c(=O)[nH]c3=O)cc2Cl)nn(C)c1=O` [Compound 9, 6-(3,5-dichloro-4-((5-isopropyl-1-methyl-6-oxo-1,6-dihydropyridazin-3-yl)oxy)phenyl)-2-methyl-1,2,4-triazine-3,5(2H,4H)-dione], at THR beta-LBD, the THRβ-Selectivity is 25.5 and the EC50 came out at 23.9 nM. The EC50 on THR alpha-LBD was 161 nM.

For the compound `CC(C)c1cc(Oc2c(Cl)cc(-c3nn(C)c(=O)[nH]c3=O)cc2Cl)n[nH]c1=O` [Compound 3, 6-(3,5-dichloro-4-((5-isopropyl-6-oxo-1,6-dihydropyridazin-3-yl)oxy)phenyl)-2-methyl-1,2,4-triazine-3,5(2H,4H)-dione], on THR beta-LBD, the THRβ-Selectivity is reported as 69.8. Moreover, the EC50 at THR beta-LBD was 114 nM; at THR alpha-LBD, 1230 nM.

Regarding `CCn1nc(-c2cc(Cl)c(Oc3cc(C(C)C)c(=O)[nH]n3)c(Cl)c2)c(=O)[nH]c1=O` [Compound 19, 6-(3,5-dichloro-4-((5-isopropyl-6-oxo-1,6-dihydropyridazin-3-yl)oxy)phenyl)-2-ethyl-1,2,4-triazine-3,5(2H,4H)-dione], the THRβ-Selectivity at THR beta-LBD was 13.9. The EC50 on THR beta-LBD was 1410 nM; at THR alpha-LBD, over 5000 nM.

In the case of `CC(C)c1cc(C(=O)c2c(Cl)cc(-c3nn(C)c(=O)[nH]c3=O)cc2Cl)n[nH]c1=O` [Compound 13, 6-(3,5-dichloro-4-(5-isopropyl-6-oxo-1,6-dihydropyridazine-3-carbonyl)phenyl)-2-methyl-1,2,4-triazine-3,5(2H,4H)-dione], on THR beta-LBD, the THRβ-Selectivity was over 27.4 and the EC50 is 750 nM. For the same compound, the EC50 at THR alpha-LBD was over 5000 nM.

On to `CCc1cc(Oc2c(Cl)cc(-c3nn(C)c(=O)[nH]c3=O)cc2Cl)n[nH]c1=O` [Compound 28, 6-(3,5-dichloro-4-((5-ethyl-6-oxo-1,6-dihydropyridazin-3-yl)oxy)phenyl)-2-methyl-1,2,4-triazine-3,5(2H,4H)-dione], for which, on THR beta-LBD, the THRβ-Selectivity is 19.2 and the concentration for a half-maximal effect (EC50) is 670 nM. Further, at THR alpha-LBD, the EC50 worked out at 3440 nM.

In turn, `CC(C)c1cc(Oc2c(Cl)cc(-c3nn(C(C)C)c(=O)[nH]c3=O)cc2Cl)n[nH]c1=O` [Compound 4, 6-(3,5-dichloro-4-((5-isopropyl-6-oxo-1,6-dihydropyridazin-3-yl)oxy)phenyl)-2-isopropyl-1,2,4-triazine-3,5(2H,4H)-dione] returned a THRβ-Selectivity at THR beta-LBD of over 3.0. Further, the 50% effective concentration (EC50) at THR beta-LBD and at THR alpha-LBD was over 5000 nM each time.

Regarding `Cc1c(-c2n[nH]c(=O)[nH]c2=O)cc(Cl)c(Oc2cc(C(C)C)c(=O)n(C)n2)c1Cl` [Compound 5, 6-(3,5-dichloro-4-((5-isopropyl-1-methyl-6-oxo-1,6-dihydropyridazin-3-yl)oxy)-2-methylphenyl)-1,2,4-triazine-3,5(2H,4H)-dione], on THR beta-LBD, the THRβ-Selectivity is reported as 2.3 and the EC50 was found to be 98.6 nM. The EC50 at THR alpha-LBD worked out at 62.6 nM.

At THR beta-LBD, `CC(C)c1cc(Cc2c(Cl)cc(-c3n[nH]c(=O)[nH]c3=O)cc2Cl)nn(C)c1=O` [Compound 17, 6-(3,5-dichloro-4-((5-isopropyl-1-methyl-6-oxo-1,6-dihydropyridazin-3-yl)methyl)phenyl)-1,2,4-triazine-3,5(2H,4H)-dione] registered a THRβ-Selectivity of 11.1. Also, the EC50 at THR beta-LBD was 34.6 nM; at THR alpha-LBD it was 99.6 nM.

Regarding `CCC(O)c1cc(Oc2c(Cl)cc(-c3nn(C)c(=O)[nH]c3=O)cc2Cl)n[nH]c1=O` (stereo not drawn) [Compound 30, 6-(3,5-dichloro-4-((5-(1-hydroxypropyl)-6-oxo-1,6-dihydropyridazin-3-yl)oxy)phenyl)-2-methyl-1,2,4-triazine-3,5(2H,4H)-dione], at THR beta-LBD, the THRβ-Selectivity is on record as 24.7 and the EC50 was 214 nM. Further, the EC50 at THR alpha-LBD came out at 1310 nM.

For the compound `CCOC(=O)Cn1nc(-c2cc(Cl)c(Oc3cc(C(C)C)c(=O)[nH]n3)c(Cl)c2)c(=O)[nH]c1=O` [Compound 20, ethyl 2-(6-(3,5-dichloro-4-((5-isopropyl-6-oxo-1,6-dihydropyridazin-3-yl)oxy)phenyl)-3,5-dioxo-4,5-dihydro-1,2,4-triazin-2(3H)-yl)acetate], the THRβ-Selectivity on THR beta-LBD is 2.7. Moreover, the EC50 at THR beta-LBD is 1930 nM; on THR alpha-LBD, 1330 nM.

The compound `CC(O)c1cc(Oc2c(Cl)cc(-c3nn(C)c(=O)[nH]c3=O)cc2Cl)n[nH]c1=O` (stereo not drawn) [Compound 31, 6-(3,5-dichloro-4-((5-(1-hydroxyethyl)-6-oxo-1,6-dihydropyridazin-3-yl)oxy)phenyl)-2-methyl-1,2,4-triazine-3,5(2H,4H)-dione] showed a THRβ-Selectivity at THR beta-LBD of 14.4. In addition, the EC50 worked out at 987 nM at THR beta-LBD and 2670 nM at THR alpha-LBD.

Regarding `CC(C)c1cc(C(=O)c2c(Cl)cc(-c3n[nH]c(=O)[nH]c3=O)cc2Cl)nn(C)c1=O` [Compound 7, 6-(3,5-dichloro-4-(5-isopropyl-1-methyl-6-oxo-1,6-dihydropyridazine-3-carbonyl)phenyl)-1,2,4-triazine-3,5(2H,4H)-dione], at THR beta-LBD, the THRβ-Selectivity came out at 15.3 and the EC50 worked out at 136 nM. In addition, the EC50 at THR alpha-LBD was found to be 435 nM.

At THR beta-LBD, `CC(C)c1cc(Oc2c(Cl)cc(-c3nn(CC#N)c(=O)[nH]c3=O)cc2Cl)n[nH]c1=O` [Compound 22, 2-(6-(3,5-dichloro-4-((5-isopropyl-6-oxo-1,6-dihydropyridazin-3-yl)oxy)phenyl)-3,5-dioxo-4,5-dihydro-1,2,4-triazin-2(3H)-yl)acetonitrile] yielded a THRβ-Selectivity of 12.9. The EC50 at THR beta-LBD came to 1170 nM; at THR alpha-LBD, 3440 nM.

`CC(C)c1cc(C(=O)c2c(Cl)cc(-c3n[nH]c(=O)[nH]c3=O)cc2Cl)n[nH]c1=O` [Compound 8, 6-(3,5-dichloro-4-(5-isopropyl-6-oxo-1,6-dihydropyridazine-3-carbonyl)phenyl)-1,2,4-triazine-3,5(2H,4H)-dione]: at THR beta-LBD, the THRβ-Selectivity is recorded as 9.5 and the half-maximal effective concentration (EC50) stood at 1450 nM. Besides, the EC50 at THR alpha-LBD is 3670 nM.
